Our source for the activity values is PMC5520944 (Cell Death & Disease, 2017).

In the assay the test system is L929sAhFas. As to the kind of experiment: cells. Further details: high-content necroptosis screen, percentage PI-positive nuclei as percent of DMSO plus stimulus control. The text has this:
To identify novel inhibitors or regulators of necroptosis, 500 small compounds from libraries targeting autophagy, kinases, phosphatases, proteases and redox balance were screened for their ability to block TNF-induced necroptosis in murine L929sAhFas cells. Three conditions were used to induce necroptosis in L929 cells: TNF alone, TNF+TAK1 inhibitor (TAK1i) and TNF+zVAD-fmk, a pan-caspase inhibitor. Inhibition of TAK1 or caspases sensitizes to necroptosis.[13], [32] Necroptosis, measured as the percentage of PI-positive nuclei normalized to the plate-specific DMSO control, was determined for each compound (Supplementary Figure 1A). […] After compound treatment, L929sAhFas (a) or L929 (b) cells were stimulated with mTNF (T), mTNF+Tak1i (TiT) or mTNF+zVAD (zVT) (Supplementary Figure 1A and B). (a) Cell death percentage (% PI-positive nuclei) or cell loss was calculated as percent of control (DMSO+stimulus). […] (b) Cell loss (luminescence-based readout for ATP) was calculated as percent of control (DMSO+stimulus). […] In stimulated conditions, % PI-positive nuclei was determined as % of DMSO control. Data represent mean values±S.E.M. of two independent experiments. Cells were stained with Hoechst and PI and percentage PI-positive nuclei was determined using high-content image analysis (BD pathway Bioimager). (d) L929sAhFas cells were treated with Sorafenib (concentration as indicated) for 24 h. Then, stimulus was removed, 50 cells/condition seeded and colonies counted with crystal violet staining after 10 days incubation. […] Schemes of workflow screening assays in L929 cell lines. (A) Scheme of the workflow of a high-content screening assay on L929sAhFas cells using mTNF (T) and mTNF+Tak1i ((5Z)-7-Oxozeaenol) (TiT) to induce necroptotic cell death. Nec-1 and zVAD-fmk were used as protective and sensitizing benchmarks, respectively, on all plates. (B) Scheme of the workflow of a CellTiter-Glo luminescent cell viability screening assay on L929 cells using mTNF+zVAD (zVT) to induce necroptotic cell death. Supplementary Figure S2. Z’ calculation for cell death screening assays in L929 cells. (A) Z’ calculation for cell death screening assay (Fig. 1A) in mTNF-stimulated L929sAhFas cells. (B) Z’ calculation for cell death screening assay (Fig. 1A) in L929sAhFas cells stimulated with mTNF + Taki.

[1] abbreviates: read-out: cell death TNF/Taki (POC).

Where a name gives a salt, the structure may show the parent alone. Read-outs that look alike come from different tables or passages of the source.

`O=C1Cc2c([nH]c3ccc(Br)cc23)-c2ccccc2N1` [Kenpaullone]: the activity at 10 µM reads like this: (read-out: cell death TNF (POC)) 162%; under setting [1], 99.9%.
For the compound `O=C1Nc2ccc(I)cc2/C1=C/c1cc(Br)c(O)c(Br)c1` [GW 5074], the activity at 10 µM was 90% (read-out: cell death TNF (POC)) and 99.1% under setting [1].
As for `Cn1cnc(N)c2ncnc1-2` [3-Methyladenine], the activity at 10 µM reads like this: (read-out: cell death TNF (POC)) 88.7%; under setting [1], 102%.
The corresponding values for `O=C1Nc2ccccc2/C1=C1/Nc2ccccc2C1=O` [Indirubin] are 91.7% and 99.1%.
On to `O=P(O)(O)C(O)c1ccc2ccccc2c1` (centres unmarked) [HNMPA], for which the activity at 10 µM (read-out: cell death TNF (POC)) is 80.3% and the activity at 10 µM under setting [1] amounted to 100%.
Consider `N#CC(C#N)=C(N)/C(C#N)=C/c1ccc(O)cc1` [Tyrphostin AG112], for which the activity at 10 µM worked out at 89.4% (read-out: cell death TNF (POC)) and 98.7% under setting [1].
For the compound `CC(C)(C)n1nc(-c2ccc(Cl)cc2)c2c(N)ncnc21` [PP2], the activity at 10 µM reads like this: (read-out: cell death TNF (POC)) 127%; under setting [1], 100%.
The matching figures for `O=c1c(-c2ccc(O)cc2)coc2cc(O)cc(O)c12` [Genistein]: 86.1% and 99.3%.
As for `O=c1c(O)c(-c2ccc(O)c(O)c2)oc2cc(O)cc(O)c12` [Quercetin·2H2O], the activity at 10 µM (read-out: cell death TNF (POC)) amounted to 90.4% and the activity at 10 µM under setting [1] is 98.5%.
The corresponding values for `N#CC(C#N)=Cc1ccc([N+](=O)[O-])c(O)c1` [AG-126] are 94.7% and 99.4%.
The matching figures for `O=S(=O)(c1cccc2c(I)cccc12)N1CCCNCC1` [ML-7·HCl]: 90.2% and 99.4%.
The matching figures for `N#C/C(=C\c1ccc(O)c(O)c1)C(N)=S` [TYRPHOSTIN 47]: 93% and 100%.
Take `C[C@@H](N)[C@H]1CC[C@H](C(=O)Nc2ccncc2)CC1` [Y-27632·2HCl]: the activity at 10 µM (read-out: cell death TNF (POC)) was found to be 93.3% and the activity at 10 µM under setting [1] was determined as 98.6%.
The matching figures for `Oc1ccc(-c2nc(-c3ccc(F)cc3)c(-c3ccncc3)[nH]2)cc1` [SB-202190]: 110% and 96.3%.
The matching figures for `N#C/C(=C\c1cc(Cl)cc(Cl)c1)c1cccnc1` [RG-14620]: 95.9% and 99.8%.
The matching figures for `N#CC(=Cc1ccc2[nH]ccc2c1)C(N)=C(C#N)C#N` [AG-370]: 86% and 99.7%.
`CC1=C(O)C(=O)[C@@H]2O[C@@H]2C1=O` [Terreic acid]: the activity at 10 µM was 104% (read-out: cell death TNF (POC)) and 99.1% under setting [1].
The matching figures for `COc1cc(/C=C(\C#N)C(N)=O)cc(CSc2nc3ccccc3s2)c1O` [AG-825]: 80.1% and 99.4%.
The corresponding values for `N#CC(C#N)=C(N)/C(C#N)=C/c1cc(O)c(O)c(O)c1` [TYRPHOSTIN 51] are 116% and 101%.
The corresponding values for `C/C(O)=C(\C#N)C(=O)Nc1cc(Br)ccc1Br` [LFM-A13] are 93.5% and 100%.
Consider `Cc1cc2ncc(-c3ccccc3)nc2cc1C` [TYRPHOSTIN AG 1295], for which the activity at 10 µM runs as follows: (read-out: cell death TNF (POC)) 93.6%; under setting [1], 100%.
The matching figures for `N#CC(C#N)=Cc1cc(O)c(O)c(O)c1` [TYRPHOSTIN 25]: 90% and 100%.
Take `O=S(=O)(c1cccc2c(Cl)cccc12)N1CCCNCC1` [ML-9·HCl]: the activity at 10 µM runs as follows: (read-out: cell death TNF (POC)) 84.8%; under setting [1], 99.8%.
The corresponding values for `N#CC(=C(/N)Sc1ccccc1N)/C(C#N)=C(\N)Sc1ccccc1N` [U-0126] are 69.7% and 98.7%.
Consider `N#C/C(=C\c1ccc(O)c(O)c1)C(N)=O` [TYRPHOSTIN 46], for which the activity at 10 µM reads like this: (read-out: cell death TNF (POC)) 97.8%; under setting [1], 99.8%.
For `Cc1ccc(-c2nn(C(C)(C)C)c3ncnc(N)c23)cc1` [PP1], the activity at 10 µM (read-out: cell death TNF (POC)) came to 114% and the activity at 10 µM under setting [1] was determined as 100%.
The corresponding values for `COC[C@H]1OC(=O)c2coc3c2[C@@]1(C)C1=C(C3=O)[C@@H]2CCC(=O)[C@@]2(C)C[C@H]1OC(C)=O` [Wortmannin] are 99.4% and 101%.
With `N#CC(C#N)=Cc1cc(O)c(O)c([N+](=O)[O-])c1` [TYRPHOSTIN AG 1288], the activity at 10 µM came to 81.1% (read-out: cell death TNF (POC)) and 99.7% under setting [1].
On to `N#CC(C#N)=Cc1ccc(O)c(O)c1` [TYRPHOSTIN 23], for which the activity at 10 µM is 88.9% (read-out: cell death TNF (POC)) and 100% under setting [1].
Take `Cc1ccc(NC(=O)c2ccc(CN3CCN(C)CC3)cc2)cc1Nc1nccc(-c2cccnc2)n1` [Imatinib mesylate]: the activity at 10 µM runs as follows: (read-out: cell death TNF (POC)) 63.9%; under setting [1], 96.1%.
Regarding `O=c1cc(N2CCOCC2)oc2c(-c3ccccc3)cccc12` [LY 294002], the activity at 10 µM was found to be 85.7% (read-out: cell death TNF (POC)) and 99.2% under setting [1].
The corresponding values for `C[S+]([O-])c1ccc(-c2nc(-c3ccc(F)cc3)c(-c3ccncc3)[nH]2)cc1` (centres unmarked) [SB-203580] are 108% and 99.6%.
As for `CCN(CC)CCNC(=O)c1c(C)[nH]c(/C=C2\C(=O)Nc3ccc(Cl)cc32)c1C` [SU11652], the activity at 10 µM runs as follows: (read-out: cell death TNF (POC)) 194%; under setting [1], 104%.
The corresponding values for `CC(C)c1cc(/C=C(\C#N)C(=O)NCCCc2ccccc2)cc(C(C)C)c1O` [SU1498] are 91.7% and 99.2%.
The matching figures for `C#Cc1cccc(Nc2ncnc3cc(OC)c(OC)cc23)c1` [BML-265]: 118% and 99.6%.
Take `Cc1ccc(NC(=O)c2cccc(N(C)C)c2)cc1NC(=O)c1ccc(O)cc1` [ZM 336372]: the activity at 10 µM by setting is: (read-out: cell death TNF (POC)) 81.9%; under setting [1], 99.4%.
The corresponding values for `C=CC(=O)c1ccc2ccccc2c1` [ZM 449829] are 87.3% and 99.6%.
Regarding `COc1cc2ncnc(Nc3cccc(Cl)c3)c2cc1OC` [TYRPHOSTIN AG 1478], the activity at 10 µM was determined as 84.2% (read-out: cell death TNF (POC)) and 98.7% under setting [1].
The corresponding values for `O=C(O)c1ccc2nc(-c3ccccc3)c(-c3ccccc3)nc2c1` [BML-257] are 91.3% and 99.7%.
For the compound `c1ccc2c(-c3ccncc3)c[nH]c2c1` [Rockout], the activity at 10 µM is, setting by setting: (read-out: cell death TNF (POC)) 106%; under setting [1], 99%.
The matching figures for `COc1cccc(-c2cc(=O)c3ccccc3o2)c1N` [PD-98059]: 70.9% and 98.9%.
With `Nc1ncnc2c1c(I)cn2[C@@H]1O[C@H](CO)[C@@H](O)[C@H]1O` [5-Iodotubercidin], the activity at 10 µM reads like this: (read-out: cell death TNF (POC)) 229%; under setting [1], 101%.
The corresponding values for `O=C(O)c1cc(N(Cc2ccccc2O)Cc2cc(O)ccc2O)ccc1O` [Lavendustin A] are 85.9% and 100%.
